Counter-ions that a name gives are not always drawn.
Legend:
Assay type in all cases: cell-based
[1] = tested on: Escherichia coli XNWB 0009; assay: MIC assay of test compounds combined with ampicillin (8 μg/mL); conditions: ampicillin 8 μg/mL fixed
Protocol: (§1) The bacterial strains used for the minimum inhibitory concentration (MIC) test were frozen in a −80° C. ULT freezer and thawed 2 days before use. A small amount of frozen bacterial strains were scraped using a sterile inoculating loop, streaked onto a TSA solid culture dish for inoculation, and then cultured for 20-24 h at 35±2° C. in a normal atmospheric environment.
(§2) 5-10 colonies with similar morphology were picked from the culture dish using a sterile inoculating loop and then re-streaked onto a suitable solid culture dish. Then the dish was placed into a normal incubator for culture for 20-24 h at 35±2° C.
(§3) 5-10 single bacterial colonies were picked from the solid culture dish, resuspended in 500 μL of 0.9% NaCl, and adjusted to an OD600 of 0.1-0.15 with a spectrophotometer.
(§4) The bacteria were then diluted 300-fold with 1.1×CAMHB.
(§5) Test compounds of columns A-H: having a highest final test concentration of 64 μg/mL or 32 μg/mL, 2-fold diluted.
(§6) Dilution of test compounds: All test compounds were dissolved and diluted in dimethylsulfoxide (DMSO). 170 μL of 3.2 mg/mL (50*64 μg/mL) compound was transferred to wells (A1-H1) of column 1 of a dilution master plate and then 85 μL of DMSO was transferred to wells of other columns. Each compound was diluted 2-fold in sequence (i.e., 85 μL of compound was pipetted from column 1 into column 2 and mixed uniformly, 85 μL of compound was pipetted from column 2 into column 3 and mixed uniformly, then 85 μL of compound was pipetted from column 3 into column 4 and mixed uniformly, and so on until the dilution was done in column 11).
(§7) Preparation of an additive of ampicillin: Ampicillin was dissolved in ddH2O. 30 μL of 100 μg/mL (12.5×8 μg/mL) ampicillin was transferred to columns 1-11 of an additive plate, followed by the addition of 30 μL of ddH2O to column 12.
(§8) 2 μL of each compound in the dilution master plate of the test compounds was transferred to the corresponding well of the assay plates. In the mean time, 2 μL of 100% DMSO was transferred to the compound-free wells (GC and SC wells). (1) 8 μL of imipenem in the additive plate of imipenem was transferred to the corresponding wells of the assay plates; (2) 8 μL of ceftazidime in the additive plate of ceftazidime was transferred to the corresponding wells of the assay plates; (3) 8 μL of ampicillin in the additive plate of ampicillin was transferred to the corresponding wells of the assay plates.
(§9) 90 μL of corresponding bacterial inocula were added to wells (except for SC wells) of the assay plates.
(§10) After addition, the 6 assay plates were covered by sterile covers. The mixtures in the assay plates were centrifuged by a centrifuge at 1000 rpm for 30 s, and mixed uniformly by oscillating with a microplate oscillator at 800 rpm for 1 min, and then cultured in a common incubator for 16-20 h at 35±2° C.
(§11) The minimum inhibitory concentration of each compound was recorded by reference to guidelines from the Clinical and Laboratory Standards Institute.
(§12) The minimum inhibitory concentrations of the compounds of the present invention and antibiotics (imipenem, ceftazidime, and ampicillin) against 11 strains of bacteria were tested in this study by reference to the medium microdilution method as indicated by the Clinical and Laboratory Standards Institute. The effect of the test compounds in combination with imipenem, ceftazidime, and ampicillin was also tested. Compounds were diluted two-fold in 96-well plates from the highest detection concentration of 64 μg/mL. The test compounds were tested in combination with a fixed concentration of imipenem (4 μg/mL), ceftazidime (8 μg/mL), and ampicillin (8 μg/mL). The bacterial inocula in the assay plates were resuscitated from TSA and diluted in CAMHB, while growth controls (GC wells) and sterile controls (SC wells) were set up in the assay plates. […]

[2] = tested on: Escherichia coli XNWB 0010; assay: as above; conditions: ampicillin 8 μg/mL fixed
Protocol: as §1, §2, §3, §4, §5, §6, §7, §8, §9, §10, §11, §12

[3] = tested on: Enterobacter aerogenes XNWB 0011; assay: as above; conditions: ampicillin 8 μg/mL fixed
Protocol: as §1, §2, §3, §4, §5, §6, §7, §8, §9, §10, §11, §12

[4] = tested on: Pseudomonas aeruginosa XNWB 0008; assay: MIC assay of test compounds combined with ceftazidime (8 μg/mL); conditions: ceftazidime 8 μg/mL fixed
In short: (§13)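 MIC determined by CLSI-guided broth microdilution in CAMHB after 16-20 h at 35±2 °C, with growth and sterile control wells. Test compound series co-dosed with fixed-level ceftazidime or imipenem; inoculum from TSA-grown colonies, adjusted to OD600 0.1-0.15 then diluted 300-fold.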

[5] = tested on: Klebsiella pneumoniae XNWB 0002; assay: as above; conditions: ceftazidime 8 μg/mL fixed
In short: as §13

[6] = tested on: Klebsiella pneumoniae XNWB 0003; assay: as above; conditions: ceftazidime 8 μg/mL fixed
In short: as §13

[7] = tested on: Acinetobacter baumannii XNWB 0007; assay: as above; conditions: ceftazidime 8 μg/mL fixed
In short: as §13

[8] = tested on: Klebsiella pneumoniae XNWB 0001; assay: as above; conditions: ceftazidime 8 μg/mL fixed
In short: as §13

[9] = tested on: Klebsiella pneumoniae XNWB 0006; assay: as above; conditions: ceftazidime 8 μg/mL fixed
In short: as §13

[10] = tested on: Klebsiella pneumoniae XNWB 0005; assay: as above; conditions: ceftazidime 8 μg/mL fixed
In short: as §13

[11] = tested on: Klebsiella pneumoniae XNWB 0004; assay: as above; conditions: ceftazidime 8 μg/mL fixed
In short: as §13

[12] = tested on: Pseudomonas aeruginosa XNWB 0008; assay: MIC assay of test compounds combined with imipenem (4 μg/mL); conditions: imipenem 4 μg/mL fixed
In short: as §13

[13] = tested on: Klebsiella pneumoniae XNWB 0002; assay: as above; conditions: imipenem 4 μg/mL fixed
In short: as §13

[14] = tested on: Klebsiella pneumoniae XNWB 0003; assay: as above; conditions: imipenem 4 μg/mL fixed
In short: as §13

[15] = tested on: Acinetobacter baumannii XNWB 0007; assay: as above; conditions: imipenem 4 μg/mL fixed
In short: as §13

[16] = tested on: Klebsiella pneumoniae XNWB 0001; assay: as above; conditions: imipenem 4 μg/mL fixed
In short: as §13

[17] = tested on: Klebsiella pneumoniae XNWB 0006; assay: as above; conditions: imipenem 4 μg/mL fixed
In short: as §13

[18] = tested on: Klebsiella pneumoniae XNWB 0005; assay: as above; conditions: imipenem 4 μg/mL fixed
In short: as §13

[19] = tested on: Klebsiella pneumoniae XNWB 0004; assay: as above; conditions: imipenem 4 μg/mL fixed
In short: as §13

Structure (SMILES)	The minimum concentration of test compounds combined with ampicillin (8 μg/mL) for bacteriostasis [1]	The minimum concentration of test compounds combined with ampicillin (8 μg/mL) for bacteriostasis [2]	The minimum concentration of test compounds combined with ampicillin (8 μg/mL) for bacteriostasis [3]	The minimum concentration of test compounds combined with ceftazidime (8 μg/mL) for bacteriostasis [4]	The minimum concentration of test compounds combined with ceftazidime (8 μg/mL) for bacteriostasis [5]	The minimum concentration of test compounds combined with ceftazidime (8 μg/mL) for bacteriostasis [6]	The minimum concentration of test compounds combined with ceftazidime (8 μg/mL) for bacteriostasis [7]	The minimum concentration of test compounds combined with ceftazidime (8 μg/mL) for bacteriostasis [8]	The minimum concentration of test compounds combined with ceftazidime (8 μg/mL) for bacteriostasis [9]	The minimum concentration of test compounds combined with ceftazidime (8 μg/mL) for bacteriostasis [10]	The minimum concentration of test compounds combined with ceftazidime (8 μg/mL) for bacteriostasis [11]	The minimum concentration of test compounds combined with imipenem (4 μg/mL) for bacteriostasis [12]	The minimum concentration of test compounds combined with imipenem (4 μg/mL) for bacteriostasis [13]	The minimum concentration of test compounds combined with imipenem (4 μg/mL) for bacteriostasis [14]	The minimum concentration of test compounds combined with imipenem (4 μg/mL) for bacteriostasis [15]	The minimum concentration of test compounds combined with imipenem (4 μg/mL) for bacteriostasis [16]	The minimum concentration of test compounds combined with imipenem (4 μg/mL) for bacteriostasis [17]	The minimum concentration of test compounds combined with imipenem (4 μg/mL) for bacteriostasis [18]	The minimum concentration of test compounds combined with imipenem (4 μg/mL) for bacteriostasis [19]
NCc1nnc([C@@H]2CC3(CC3)[C@@H]3CN2C(=O)N3OS(=O)(=O)O)o1 [Example 2, (1R,4S)-4-(5-(aminomethyl)-1,3,4-oxadiazol-2-yl)-6-oxo-5,7-diazaspiro[bicycle [3.2.1]octane-2,1′-cyclopropan]-7-yl sulfate]	A (A: <8 μg/mL)	A (A: <8 μg/mL)	A (A: <8 μg/mL)	C (C: 16-128 μg/mL)	A (A: <8 μg/mL)	A (A: <8 μg/mL)	C (C: 16-128 μg/mL)	A (A: <8 μg/mL)	A (A: <8 μg/mL)	A (A: <8 μg/mL)	B (B: 8-16 μg/mL)	C (C: 16-128 μg/mL)	A (A: <8 μg/mL)	A (A: <8 μg/mL)	C (C: 16-128 μg/mL)	A (A: <8 μg/mL)	A (A: <8 μg/mL)	A (A: <8 μg/mL)	A (A: <8 μg/mL)
N=C1NC[C@H](c2nnc([C@@H]3CC4(CC4)[C@@H]4CN3C(=O)N4OS(=O)(=O)O)o2)N1 [Example 56, (1R,4S)-4-(5-((R)-2-iminoimidazolidin-4-yl)-1,3,4-oxadiazol-2-yl)-6-oxo-5,7-diazaspiro[bicyclo[3.2.1]octane-2,1′-cyclopropan]-7-yl sulfate]	–	–	–	B (B: 8-16 μg/mL)	A (A: <8 μg/mL)	A (A: <8 μg/mL)	C (C: 16-128 μg/mL)	A (A: <8 μg/mL)	A (A: <8 μg/mL)	A (A: <8 μg/mL)	A (A: <8 μg/mL)	B (B: 8-16 μg/mL)	A (A: <8 μg/mL)	A (A: <8 μg/mL)	B (B: 8-16 μg/mL)	A (A: <8 μg/mL)	A (A: <8 μg/mL)	A (A: <8 μg/mL)	A (A: <8 μg/mL)
O=C(NC1CCNCC1)[C@@H]1CC[C@@H]2CN1C(=O)N2OS(=O)(=O)O [Relebactam, reference compound]	–	–	–	A (A: <8 μg/mL)	A (A: <8 μg/mL)	A (A: <8 μg/mL)	C (C: 16-128 μg/mL)	A (A: <8 μg/mL)	A (A: <8 μg/mL)	A (A: <8 μg/mL)	A (A: <8 μg/mL)	A (A: <8 μg/mL)	A (A: <8 μg/mL)	A (A: <8 μg/mL)	C (C: 16-128 μg/mL)	A (A: <8 μg/mL)	A (A: <8 μg/mL)	A (A: <8 μg/mL)	A (A: <8 μg/mL)

— patent US11078202B2, “β-lactamase inhibitor and use thereof” (priority 2018, dated 2021)
